Test results published in patent US11560400B2, “Salts of diphosphate phosphoramidate of nucleosides as anticancer compounds” (NuCana plc, priority 2017, dated 2023).
Counter-ions that a name gives are not always drawn. Like-named read-outs stand apart in the source and are kept apart here.

How the values were obtained:
Mia-Pa-Ca-2 = experiment: CellTiterGlo cell viability assay, Mia-Pa-Ca-2; assay type: cell-based; conditions: Homo sapiens, MIA PaCa-2, Mia-Pa-Ca-2, 72 h; for EC50: absolute EC50, read-out: Ab EC50; for inhibition at 198 µM: percentage inhibition at the highest concentration tested, read-out: Top Inhibit
Protocol: A subset of compounds of the invention were assayed for their cytotoxic activity in an array of different solid tumours and haematological malignancies using the following assay.
In vitro viability assay were performed to assess the effects of compounds on cell viability in selected cell lines over 72 h using the CellTiterGlo (CTG, Promega-G7573) assay. The tests were performed in duplicates with treatment of compounds at 9 points, 3.16 folds titration in 96 well plates over ˜72 h. The compound starting concentrations were 198 μM. Cell viability assay using CellTiterGlo in 96-well plate were performed. Compound treatment 72 h, standard growth conditions, duplicates. Compounds were dissolved to 40 mM with thawed […]. Compounds were serially diluted at 3.16 fold in thawed DMSO, and warmed to 37° C. before being dissolved in media (2 μL+200 μL). After compounds were dissolved in media, media containing compounds were warmed to 37° C. in incubator and then compounds in media were added to cell plates (50 μL+50 μL) in duplicates. The compounds' final concentrations were from 198 μM to 19.8 nM. All compound solubilities were checked and recorded again, then the plates were transferred to CO2 tissue culture incubator immediately and incubated for 3 days. DMSO final concentration is 0.5%. The parent nucleoside in each case was tested as a comparator, as was an exemplary ProTide. The drugs of the ProTide class that were tested were as follows:
The following cell lines were tested and are referred to in the Table 1 below:
In Tables 2, 3 and 4, ‘Ab EC50’ refers to the absolute EC50 and ‘Top inhibit’ refers to the percentage inhibition achieved at the highest concentration tested.

HT29 = experiment: CellTiterGlo cell viability assay, HT29; assay type: cell-based; conditions: Homo sapiens, HT29, 72 h; for EC50: absolute EC50, numeric values, read-out: Ab EC50; for inhibition at 198 µM: percentage inhibition at the highest concentration tested, read-out: Top Inhibit
Procedure, shortened: (§1)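 72 h CTG viability; 9-pt, 3.16-fold titration, 198 μM top to 19.8 nM final; duplicates; 0.5% DMSO final; standard growth conditions. Read-out: absolute EC50 and % inhibition at highest concentration.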

HepG2 = experiment: CellTiterGlo cell viability assay, HepG2; assay type: cell-based
Procedure, shortened: as §1

OVCAR 3 = experiment: CellTiterGlo cell viability assay, OVCAR 3; assay type: cell-based; conditions: Homo sapiens; for inhibition at 198 µM: percentage inhibition at the highest concentration tested, read-out: Top Inhibit; for EC50: absolute EC50, numeric values, read-out: Ab EC50
Procedure, shortened: as §1

MCF-7 = experiment: CellTiterGlo cell viability assay, MCF-7; assay type: cell-based; conditions: Homo sapiens, MCF-7, 72 h; for EC50: absolute EC50, numeric values, read-out: Ab EC50; for inhibition at 198 µM: percentage inhibition at the highest concentration tested, read-out: Top Inhibit
Procedure, shortened: as §1

CCRF-CEM = experiment: CellTiterGlo cell viability assay, CCRF-CEM; assay type: cell-based; conditions: Homo sapiens, 72 h; for EC50: absolute EC50, numeric values, read-out: Ab EC50; for inhibition at 198 µM: percentage inhibition at the highest concentration tested, read-out: Top Inh
Procedure, shortened: as §1

RPMI-8226 = experiment: CellTiterGlo cell viability assay, RPMI-8226; assay type: cell-based, Human
Procedure, shortened: as §1

in vitro = conditions: human, pH 7.3; for half-life: hepatocytes
MOLT-4 = experiment: CellTiterGlo cell viability assay, MOLT-4; assay type: cell-based; conditions: Homo sapiens, MOLT-4, 72 h; for inhibition at 198 µM: percentage inhibition at the highest concentration tested, read-out: Top Inh; for EC50: absolute EC50, numeric values, read-out: Ab EC50
Procedure, shortened: as §1

K562 = experiment: CellTiterGlo cell viability assay, K562; assay type: cell-based; conditions: Homo sapiens, K562, 72 h; for inhibition at 198 µM: percentage inhibition at the highest concentration tested, read-out: Top Inh; for EC50: absolute EC50, numeric values, read-out: Ab EC50
Procedure, shortened: as §1

HL-60 = experiment: CellTiterGlo cell viability assay, HL-60; assay type: cell-based; conditions: Homo sapiens, HL-60, 72 h; for EC50: absolute EC50, numeric values, read-out: Ab EC50; for inhibition at 198 µM: percentage inhibition at the highest concentration tested, read-out: Top Inh
Procedure, shortened: as §1

RL = experiment: CellTiterGlo cell viability assay, RL; assay type: cell-based; conditions: Homo sapiens, 72 h; for EC50: absolute EC50, numeric values, read-out: Ab EC50; for inhibition at 198 µM: percentage inhibition at the highest concentration tested, read-out: Top Inh
Procedure, shortened: as §1

[1] = Homo sapiens, HepG2, 72 h, absolute EC50, numeric values, read-out: Ab EC50
[2] = Homo sapiens, HepG2, 72 h, percentage inhibition at the highest concentration tested, read-out: Top Inhibit
[3] = Homo sapiens, RPMI-8226, 72 h, absolute EC50, numeric values, read-out: Ab EC50
[4] = Homo sapiens, RPMI-8226, 72 h, percentage inhibition at the highest concentration tested, read-out: Top Inh

| Compound | EC50 (Mia-Pa-Ca-2) [nM] | inhibition at 198 µM (Mia-Pa-Ca-2) [%] | EC50 (HT29; HT-29, 72 h) [nM] | inhibition at 198 µM (HT29; HT-29, 72 h) [%] | EC50 (HepG2; [1]) [nM] | inhibition at 198 µM (HepG2; [2]) [%] | inhibition at 198 µM (OVCAR 3; OVCAR-3, 72 h) [%] | EC50 (OVCAR 3; OVCAR 3, 72 h) [nM] | EC50 (MCF-7; MCF7, 72 h) [nM] | inhibition at 198 µM (MCF-7; MCF7, 72 h) [%] | EC50 (CCRF-CEM) [nM] | inhibition at 198 µM (CCRF-CEM) [%] | EC50 (RPMI-8226; [3]) [nM] | inhibition at 198 µM (RPMI-8226; [4]) [%] | half-life (in vitro) [min] | inhibition at 198 µM (MOLT-4) [%] | EC50 (MOLT-4) [nM] | inhibition at 198 µM (K562) [%] | EC50 (K562) [nM] | EC50 (HL-60) [nM] | other results |
| --- | --- | --- | --- | --- | --- | --- | --- | --- | --- | --- | --- | --- | --- | --- | --- | --- | --- | --- | --- | --- | --- |
| C[C@H](NP(=O)(Oc1cccc2ccccc12)OP(=O)(O)OC[C@H]1O[C@@H](n2cc(F)c(=O)[nH]c2=O)CC1O)C(=O)OCc1ccccc1 (stereo partly drawn) [Example 4, 5-Fluoro-2′-deoxyuridine-5′-O-[1-naphthyl-(benzoxy-L-alaninyl)] Diphosphate Triethylammonium Salt] | 110 | 67 | 250 | 77 | > 198000 | 48 | 67.5 | 2810 | 15800 | 66 | 30 | 97.1 | 50 | 95 | 15 |  |  |  |  |  |  |
| C[C@H](NP(=O)(Oc1cccc2ccccc12)OP(=O)(O)OC[C@H]1O[C@@H](n2c(Cl)nc3c(N)ncnc32)[C@@H](O)C1O)C(=O)OCc1ccccc1 (stereo partly drawn) [Example 5, 8-Chloroadenosine-5′-O-[1-naphthyl-(benzoxy-L-alaninyl)]diphosphate Triethylammonium Salt] | 430 | 87.6 | 1410 | 76.5 |  |  |  |  | 1690 | 88 |  |  |  |  | 18 |  |  |  |  |  |  |
| C[C@H](NP(=O)(Oc1ccccc1)OP(=O)(O)OC[C@@H]1C[C@H](OP(=O)(O)OP(=O)(N[C@@H](C)C(=O)OCc2ccccc2)Oc2ccccc2)[C@H](n2cnc3c(N)ncnc32)O1)C(=O)OCc1ccccc1 (stereo partly drawn) [Example 7, 3′-Deoxyadenosine-5′,2′-Bis-O-[phenyl(benzoxy-L-alaninyl)]-diphosphate Triethylammonium Salt] | 3320 | 98.9 | 7790 | 79 |  |  |  |  |  |  |  |  | 1600 | 98 | 27 | 90 | 25300 | 94 | 9160 | 6970 | inhibition at 198 µM (HL-60): 100%; EC50 (RL): 11100 nM; inhibition at 198 µM (RL): 93% |
| C[C@H](NP(=O)(Oc1ccccc1)OP(=O)(O)OC[C@H]1O[C@@H](n2ccc(N)nc2=O)C(F)(F)C1O)C(=O)OCc1ccccc1 (stereo partly drawn) [Example 8, 2′-Deoxy-2′,2′-difluoro-D-cytidine-5′-O-[phenyl(benzoxy-L-alaninyl)] Diphosphate Triethylammonium Salt] | 70 | 79 | 480 | 62 | 83100 | 52 | 48.5 | > 198000 | 70 | 52 | 40 | 99.9 |  |  | 27 | 84 | 9 | 29 | > 198000 | 80 | inhibition at 198 µM (HL-60): 98%; EC50 (RL): 200 nM; inhibition at 198 µM (RL): 66.5% |
| O=c1[nH]c(=O)n([C@H]2C[C@H](O)[C@@H](CO)O2)cc1F [FUDR, 5-fluoro-2′-deoxyuridine, reference compound] | 350 | 90 |  |  |  |  |  | 2320 |  |  | 40 | 91.9 |  |  |  |  |  |  |  |  | EC50 (HT29; HT-29): 220 nM; inhibition at 198 µM (HT29; HT-29): 82%; EC50 (HepG2; Homo sapiens; HepG2, 72 h, absolute EC50, numeric values; read-out: Ab EC50): 84000 nM; inhibition at 198 µM (HepG2; Homo sapiens; HepG2, 72 h, percentage inhibition at the highest concentration tested; read-out: Top Inhibit): 61%; inhibition at 198 µM (OVCAR 3; OVCAR 3, 72 h): 66%; EC50 (MCF-7; MCF7): 7230 nM; inhibition at 198 µM (MCF-7; MCF7): 73%; EC50 (RPMI-8226; Homo sapiens; RPMI-8226, 72 h, absolute EC50, numeric values; read-out: Ab EC50): 110 nM; inhibition at 198 µM (RPMI-8226; Homo sapiens; RPMI-8226, 72 h, percentage inhibition at the highest concentration tested; read-out: Top Inh): 99%; half-life at 1 μM (in vitro; pooled cryopreserved hepatocytes): 69 min |
